Reference: US20240294533A1, “2-(HET)ARYL-SUBSTITUTED CONDENSED HETEROCYCLE DERIVATIVES AS PEST CONTROL AGENTS” (Bayer Aktiengesellschaft, priority 2021, published 2024)

Tests used:
Type in all cases: in vivo
[1] = test system: Diabrotica balteata; assay: Diabrotica balteata drench test; conditions: 20 ppm, soil drench, maize, after 8 days
Excerpt: Diabrotica balteata—Drench Test Solvent: 7 parts by weight of dimethylformamide Emulsifier: 2 parts by weight of alkylaryl polyglycol ether An appropriate active ingredient formulation is produced by mixing 1 part by weight of active ingredient with the specified amounts of solvent and emulsifier, and diluting the concentrate to the desired concentration with water, it being necessary to take account of the volume of soil which is drenched. It should be ensured that a concentration of 40 ppm of emulsifier in the soil is not exceeded. Further test concentrations are produced by diluting with water. 5 […] (Zea mays) in each case are sown into pots filled with earth, and the next day the pots are watered with the active ingredient preparation of the desired concentration. After one day, about 25 L2 larvae of the banded cucumber beetle (Diabrotica balteata) are added. After 8 days, efficacy in % is determined. 100% means that all 5 plants have germinated and grown; 0% means that none of the plants has emerged.

[2] = test system: Plutella xylostella; assay: Plutella xylostella spray test (PLUTMA), comparative; conditions: 168 h, 0.16 ppm, cabbage leaves, after 7 days
Excerpt: Plutella xylostella Spray Test (PLUTMA) Solvent: 14 parts by weight of dimethylformamide Emulsifier: alkylaryl polyglycol ether An appropriate active ingredient formulation is produced by dissolving 1 part by weight of active ingredient with the stated parts by weight of solvent and making the solution up to the desired concentration with water containing an emulsifier concentration of 1000 ppm. Further test concentrations are produced by diluting the formulation with emulsifier-containing water. If the addition of ammonium salts or/and penetrants is required, these are each added in a concentration of 1000 ppm to the formulation solution. Cabbage leaves (Brassica oleracea) are sprayed with an active ingredient formulation of the desired concentration and infected with larvae of the diamondback moth (Plutella xylostella). After 7 days, the kill in % is determined. 100% means that all caterpillars have been killed; 0% means that none of the caterpillars have been killed.

[3] = test system: Myzus persicae; assay: Myzus persicae oral test; conditions: 4 ppm, after 5 days
Procedure: Myzus persicae—Oral Test Solvent: 100 parts by weight of acetone An appropriate active ingredient formulation is produced by dissolving 1 part by weight of active ingredient with the specified parts by weight of solvent and making the solution up to the desired concentration with water. 50 μl of the active ingredient formulation is transferred into microtitre plates and made up to a final volume of 200 μl with 150 μl of IPL41 insect medium (33%+15% sugar). Subsequently, the plates are sealed with parafilm, which a mixed population of green peach aphids (Myzus persicae) within a second microtitre plate is able to puncture and imbibe the solution. After 5 days, efficacy in % is determined. 100% means that all the aphids have been killed; 0% means that no aphids have been killed.

[4] = test system: Spodoptera frugiperda; assay: Spodoptera frugiperda spray test (maize leaf discs); conditions: Spodoptera frugiperda, foliar, 168 h, after 7 days, read-out: efficacy
Summary of the method: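 Maize leaf discs sprayed with compound formulated in acetone/DMF with alkylaryl polyglycol ether emulsifier (1000 ppm) in water, then infested with fall armyworm caterpillars after drying. Efficacy (% caterpillars killed) scored after 7 days; 100% means all killed, 0% none.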

[5] = test system: Phaedon cochleariae; assay: Phaedon cochleariae spray test; conditions: 100 g/ha, Chinese cabbage leaf discs, after 7 days
Excerpt: Phaedon cochleariae—Spray Test
Solvent: 78.0 parts by weight of acetone • • 1.5 parts by weight of dimethylformamide
Emulsifier: alkylaryl polyglycol ether
An appropriate active ingredient formulation is produced by dissolving 1 part by weight of active ingredient with the stated parts by weight of solvent and making the solution up to the desired concentration with water containing an emulsifier concentration of 1000 ppm. Further test concentrations are produced by diluting the formulation with emulsifier-containing water.
Discs of Chinese cabbage leaves (Brassica pekinensis) are sprayed with an active ingredient formulation of the desired concentration and, after drying, populated with larvae of the mustard beetle (Phaedon cochleariae).
After 7 days, efficacy in % is determined. 100% means that all the beetle larvae have been killed; 0% means that no beetle larvae have been killed.

[6] = test system: Lucilia cuprina; assay: Lucilia cuprina test; conditions: 100 ppm, L1 larvae, after 2 days
Procedure: Lucilia cuprina Test Solvent: dimethyl sulfoxide An appropriate active ingredient formulation is produced by mixing 10 mg of active ingredient with 0.5 ml of dimethyl sulfoxide and diluting the concentrate with water to the desired concentration. About 20 L1 larvae of the Australian sheep blowfly (Lucilia cuprina) are transferred into a test vessel containing minced horsemeat and the active ingredient formulation of the desired concentration. After 2 days, the kill rate in % is determined relative to the untreated control. 100% means that all the larvae have been killed; 0% means that no larvae have been killed.

[7] = test system: Boophilus microplus; assay: Boophilus microplus injection test; conditions: 20 μg/tick, after 7 days, laying of fertile eggs
Procedure: Boophilus microplus—Injection Test Solvent: dimethyl sulfoxide An appropriate active ingredient formulation is produced by mixing 10 mg of active ingredient with 0.5 ml of solvent and diluting the concentrate with solvent to the desired concentration. 1 μl of the active ingredient solution is injected into the abdomen of 5 engorged adult female cattle ticks (Boophilus microplus). The ticks are transferred into dishes and kept in a climate-controlled room. Efficacy is checked after 7 days by laying of fertile eggs. Eggs which are not visibly fertile are stored in a climate-controlled cabinet until the larvae hatch after about 42 days. Efficacy of 100% means that none of the ticks has laid any fertile eggs; 0% means that all the eggs are fertile.

[8] = test system: Ctenocephalides felis; assay: Ctenocephalides felis oral test; conditions: 100 ppm, oral via cattle blood, after 2 days
Procedure: Ctenocephalides felis—Oral Test Solvent: dimethyl sulfoxide An appropriate active ingredient formulation is produced by mixing 10 mg of active ingredient with 0.5 ml of dimethyl sulfoxide. Dilution with citrated cattle blood gives the desired concentration. About 20 unfed adult cat fleas (Ctenocephalides felis) are placed into a chamber which is closed at the top and bottom with gauze. Onto the chamber is placed a metal cylinder with its bottom end closed with parafilm. The cylinder contains the blood/active ingredient formulation, which can be imbibed by the fleas through the parafilm membrane. The cylinder is heated to 37° C., while the flea chambers are kept at room temperature. After 2 days, the kill rate in % is determined relative to the untreated control. 100% means that all of the fleas have been killed; 0% means that none of the fleas have been killed.

**Q.** For `CCS(=O)(=O)c1ccc(-n2ncn(-c3ccc(Cl)cc3)c2=O)nc1-c1nc2cc(C(F)(F)C(F)(F)F)cnc2n1C` [Example I-23], which efficacy [1] is on record?
**A.** 100%

**Q.** What about the efficacy at 0.16 ppm [2] of the same compound?
**A.** 90%

**Q.** What about the efficacy [3] of the same compound?
**A.** 100%

**Q.** What about the pest or weed control at 100 g/ha [4] of the same compound?
**A.** 100%

**Q.** What about the efficacy [5] of the same compound?
**A.** 100%

**Q.** What about the “efficacy (kill rate)” value [6] of the same compound?
**A.** 100%

**Q.** What about the efficacy [7] of the same compound?
**A.** 90%

**Q.** What about the “efficacy (kill rate)” value [8] of the same compound?
**A.** 100%
